# Measurements published in ChEMBL document CHEMBL1629644, “Theileria apicoplast as a target for chemotherapy” (Antimicrob Agents Chemother, 2009).
# Columns and labels:
# [1] = Induction of apoptosis in bovine BL3 cells assessed as viable cells after 24 hrs by annexin V/propidium iodide staining-based FACS analysis; type: functional, Bos taurus; design: concentration or dose not given beside the values
# [2] = Antiproliferative activity against Theileria parva-induced proliferation of bovine BL3 cells assessed as inhibition of [3H]thymidine uptake after 32 hrs; type: functional, Bos taurus
# [3] = Induction of apoptosis in bovine BL3 cells assessed as necrotic after 24 hrs by annexin V/propidium iodide staining-based FACS analysis; type: functional, Bos taurus; design: concentration or dose not given beside the values
# [4] = Induction of apoptosis in bovine BL3 cells assessed as early apoptotic cells after 24 hrs by annexin V/propidium iodide staining-based FACS analysis; type: functional, Bos taurus; design: concentration or dose not given beside the values
# [5] = Antiproliferative activity against Theileria parva-induced proliferation of bovine B lymphocyte assessed as inhibition of [3H]thymidine uptake after 48 hrs; type: functional; settings: Bos taurus, B-cell
# [6] = Induction of apoptosis in bovine BL3 cells assessed as late apoptotic cells after 24 hrs by annexin V/propidium iodide staining-based FACS analysis; type: functional, Bos taurus; design: concentration or dose not given beside the values
Structure (SMILES),Activity [1] [%],inhibition (INH) [2] [%],Activity [3] [%],Activity [4] [%],IC50 [5] [µM],Activity [6] [%]
CC(Oc1ccc(Oc2nc3ccc(Cl)cc3o2)cc1)C(=O)O (stereo not drawn) [FENOXAPROP],83.78,>75,0.18,15.98,262,0.06
CN[C@@H]1C[C@H]2O[C@@](C)([C@@H]1OC)n1c3ccccc3c3c4c(c5c6ccccc6n2c5c31)C(=O)NC4 [STAUROSPORINE],61.57,–,0.08,23.83,–,14.54
CO[C@H]1/C=C/O[C@@]2(C)Oc3c(C)c(O)c4c(O)c(c(/C=N/N5CCN(C)CC5)c(O)c4c3C2=O)NC(=O)/C(C)=C\C=C\[C@H](C)[C@H](O)[C@@H](C)[C@@H](O)[C@@H](C)[C@H](OC(C)=O)[C@@H]1C [RIFAMPIN],97.57,>75,0,2.43,96,0
CCC[C@@H]1C[C@@H](C(=O)N[C@@H]([C@H]2O[C@H](SC)[C@H](O)[C@@H](O)[C@H]2O)[C@H](C)Cl)N(C)C1 [CLINDAMYCIN],92.64,28,0,7.36,> 400,0
O=C(O)c1cn(C2CC2)c2cc(N3CCNCC3)c(F)cc2c1=O [CIPROFLOXACIN],98.63,–,0.03,1.03,123,0.25
Oc1cc(Cl)ccc1Oc1ccc(Cl)cc1Cl [TRICLOSAN],45.87,>75,0.13,44.02,20,9.98
